# How the values were obtained:
# Format in all cases: in vivo
# [1] = test system: wheat powdery mildew (Blumeria graminis (DC.) Speer); experiment: Whole-plant pot assay, control effect against wheat powdery mildew; conditions: spray on wheat leaves, inoculation 24 h after treatment, assessed 10 days after inoculation
# Method: Various kinds of pathogens were tested with the compounds of the present application. Unless otherwise specified in the examples and the present application, the preparation method of samples is as follows: 10 mg of the compound was weighed and dissolved in 1 mL DMF to prepare a 10000 ppm stock solution, and the stock solution was diluted with 0.05% Tween-80 aqueous solution to the required concentrations for activity tests.
# In this example, the control effects of the prepared pyrazol-5-ether compounds against wheat powdery mildew (Blumeria graminis (DC.) Speer) were tested using the following method.
# A whole-plant pot assay was employed for screening. The pesticide formulation was uniformly sprayed onto wheat leaves at the first true leaf stage using a laryngeal atomizer, with three replicates per treatment. The treated plant was air-dried naturally indoors. At 24 hours post-treatment, wheat powdery mildew spores (collected approximately 10 days after inoculation) were evenly dusted onto the compound-treated wheat leaves. Disease assessment was conducted 10 days after spore inoculation when symptom development stabilized in the control group. The assessment results were recorded on a 100-0 scale, where ‘100’ indicates complete disease absence and ‘0’ represents maximum disease severity.
# [2] = test system: cucumber powdery mildew (Erysiphe cichoracearum); experiment: Whole-plant pot assay, control effect against cucumber powdery mildew; conditions: 2.5 ppm, foliar spray on cucumber seedlings, inoculation 24 h after treatment
# Method: In this example, the control effects of the prepared pyrazol-5-ether compounds against cucumber powdery mildew (Erysiphe cichoracearum) were tested using the following method.
# (§1) A whole-plant pot assay was employed for screening. […] Greenhouse-cultivated cucumber seedlings at the two-leaf stage served as test hosts for cucumber powdery mildew (Erysiphe cichoracearum). The compounds of the present application were sprayed on the leaves at designed concentrations, and lank controls sprayed with water were also set, in triplicate. At 24 hours post-treatment, pathogen inoculation was conducted. After inoculation, the plants were maintained in controlled environment chamber for constant humidity culture (temperature: 25° C. day/20° C. night, relative humidity: 95%-99%). After 24 hours of incubation, the plants were transferred to the greenhouse. Control effect assessments were conducted on the compounds when disease symptoms fully developed in controls (typically one week). The assessment results were recorded on a 100-0 scale, where ‘100’ indicates complete disease absence and ‘0’ represents maximum disease severity.
# [3] = test system: soybean rust (Phakopsora pachyrhizi); experiment: Whole-plant pot assay, control effect against soybean rust; conditions: foliar spray on soybean plants, inoculation 24 h after treatment
# Method: In this example, the control effects of the prepared pyrazol-5-ether compounds against soybean rust (Phakopsora pachyrhizi) were tested using the following method.
# as §1, with “soybean plants” for “cucumber seedlings”, “soybean rust (Phakopsora pachyrhizi).” for “cucumber powdery mildew (Erysiphe cichoracearum).”, “blank” for “lank”, “recorded according to the A Manual of Assessment Keys for Plant Diseases compiled by the American Phytopathological Society” for “recorded”
Structure (SMILES),control effect against wheat powdery mildew ([1]; 10 ppm) [%],control effect against wheat powdery mildew ([1]; 40 ppm) [%],control effect against cucumber powdery mildew [2] [%],control effect against soybean rust ([3]; 4 ppm) [%],control effect against soybean rust ([3]; 10 ppm) [%]
Cc1cc(Oc2cc(C(C)(C)C)nn2C)c(Cl)cc1/N=C/N1CCCC1 [KC2],0,0,0,–,–
"CCN(C)/C=N/c1cc(C)c(Oc2cc(C(F)(F)F)nn2C)cc1C [Compound 16, (E)-N′-[4-(1-methyl-3-trifluoromethyl-1H-pyrazol-5-yloxy)-2,5-dimethylphenyl]-N-ethyl-N-met hylformamidine]",81.48,96.30,–,–,–
CCN(C)C=Nc1cc(C)c(Oc2c(C)c(C)nn2C)cc1C [Compound 143],74.07,–,–,–,–
CCN(C)/C=N/c1cc(C)c(Oc2ccn(-c3ccc(Cl)cc3)n2)cc1C [KC3],0,59.26,22.22,0,22
CCN(C)/C=N/c1cc(Cl)c(Oc2cc(C(C)(C)C)nn2C)cc1C [KC1],0,22.22,0,–,–
CCN(C)C=Nc1cc(C)c(Oc2cc(C)nn2C)cc1Cl [Compound 132],74.07,–,–,–,–

# — patent US20260206759A1, “PYRAZOL-5-ETHER COMPOUND, AND PREPARATION METHOD THEREFOR AND USE THEREOF” (CAC NANTONG CHEMICAL CO., LTD., priority 2023, published 2026)
